pIC50, pKi: −log10 of the molar value.
Legend:
mu-opioid receptor [1] = target: T1, mu-opioid receptor (Homo sapiens, UniProt P35372); assay: Competition binding assay (3H-DAMGO); details: mu-opioid receptor expressing membranes, 0.5 nM 3H-DAMGO
Method: Competition Binding Assays
Mu-, kappa- or delta-opioid receptor expressing membranes (5-15 μg/well) were suspended in 50 mM Tris buffer pH 7.6 containing 5 mM MgCl2 and were incubated on 96-well plates with test compound or vehicle (1% DMSO) and either 0.5 nM ^3H-DAMGO, 0.8 nM ^3H-U-69,595 or 1.1 nM ^3H-DPDPE respectively in a total volume of 200 μL for 90 min at rt (22° C.). The contents of the wells were filtered and washed 5 times with chilled 50 mM Tris buffer pH 7.6 through H2O pre-soaked GF/B filters using a Perkin Elmer Filtermate. The filters were dried and upon application of scintillant the bound radioactive content for each well determined by scintillation counting in a Wallac TriLux Microbeta scintillation counter. Non-specific binding was determined in the presence of 2 μM Naloxone. IC50 values were determined by plotting log concentration test compound against specific binding and subsequent Ki values calculated.

mu-opioid receptor [2] = target: T1, mu-opioid receptor; assay: GTPγS functional binding assay (DAMGO-stimulated); assay type: biochemical; details: mu-opioid receptor expressing membranes, agonist DAMGO 10 nM, 35S-GTPγS binding
Method: GTPγS Functional Binding Assays
Mu-, kappa- or delta-opioid receptor expressing membranes (5-20 μg/well) were suspended in 50 mM HEPES buffer pH 7.6 containing 3 mM MgCl2, 120 mM NaCl, 150 pM GTPγS, 10 μg/mL saponin and 3 μM GDP (μ-opioid receptor assay) or 5 μM GDP (κ- and δ-opioid receptor assay) and were pre-incubated on 96-well plates with test compound or vehicle (1% DMSO) in a total volume of 160 μL for 10 min at rt (22° C.). Specific agonists DAMGO (10 nM final concentration), U-50,488 (30 nM final concentration) or SNC-80 (10 nM final concentration) were added respectively and the plates pre-incubated for a further 15 min at rt (22° C.) ^35S-GTPγS at a final concentration in the assay of 150 pM was then added to provide a total volume per well of 200 μL and the plates incubated for 45 min at 30° C. The contents of the wells were filtered and washed 5 times with chilled 50 mM Tris buffer pH 7.6 through H2O pre-soaked GF/B filters using a Perkin Elmer Filtermate. The filters were dried and upon application of scintillant the bound radioactive content for each well determined by scintillation counting in a Wallac TriLux Microbeta scintillation counter. Non-specific binding was determined in the presence of 10 μM GTPγS. IC50 values were determined by plotting log concentration test compound against percentage increase over non-stimulated ^35S-GTPγS binding.

T1 sequence (P35372 whole entry, species assumed): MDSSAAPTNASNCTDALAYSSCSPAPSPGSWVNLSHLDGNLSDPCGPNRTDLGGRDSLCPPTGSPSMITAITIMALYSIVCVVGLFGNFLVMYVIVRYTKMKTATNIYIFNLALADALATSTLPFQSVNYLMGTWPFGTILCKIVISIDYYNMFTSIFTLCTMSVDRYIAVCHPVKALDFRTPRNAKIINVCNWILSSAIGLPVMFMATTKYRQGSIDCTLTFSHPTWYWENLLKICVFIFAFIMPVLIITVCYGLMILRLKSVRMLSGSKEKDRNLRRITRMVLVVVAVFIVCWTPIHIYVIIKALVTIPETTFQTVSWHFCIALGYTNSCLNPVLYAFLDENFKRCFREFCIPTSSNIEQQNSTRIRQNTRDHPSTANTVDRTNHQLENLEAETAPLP

| SMILES | pKi (mu-opioid receptor [1]) | pIC50 (mu-opioid receptor [2]) |
| --- | --- | --- |
| Cc1cc(CNCCC2C3CC4CC(C3)CC2C4)ccc1-c1cccc(C(N)=O)c1 (stereo not shown) [Example 46, 4′-[(2-Adamantan-2-yl-ethylamino)methyl]-2′-methylbiphenyl-3-carboxylic acid amide] | > 7.00 | > 7.00 |
| NC(=O)c1cccc(-c2ccc(CNCCC3C4CC5CC(C4)CC3C5)cn2)c1 (stereo not shown) [Example 84, 3-{5-[(2-Adamantan-2-ylethylamino)methyl]-pyridin-2-yl}benzamide] | > 7.00 | > 7.00 |

Source: patent publication US8063247B2, “Bicyclic aryl and heteroaryl receptor modulators” (Prosidion Limited, priority 2007, dated 2011)
